For 16 compounds, IC50 and Ki results are on record in patent US12649733B2, “3,6-diamino-pyridazin-3-yl derivatives, pharmaceutical compositions containing them and their uses as pro-apoptotic agents” (LES LABORATOIRES SERVIER, priority 2019, dated 2026).

Assay [1] relates to H146 cells. The assay can be described thus: H146 cell viability, MTT assay. Format: cell-based. As to conditions: Homo sapiens, NCI-H146, 48 h, 48 h exposure. Put shortly: (§1)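 Viability read by MTT reduction (OD 540 nm after overnight SDS/HCl lysis) after 48 h compound treatment of cells in RPMI 1640/10% FBS. Triplicates at nine concentrations, 3.16-fold apart; four-parameter curve fitting yields IC50.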

Assay [2] concerns the target T1, Bcl-xL protein (Homo sapiens, UniProt Q07817, N197C).
T1 construct: (2-197)[N197C]; His-His (two His8 stretches joined by a Gly/Ala/Ser/Thr linker)
The assay can be described thus: Fluorescence quenching assay (PUMA peptide displacement). Format: binding. As to conditions: 1 nM protein, 400 nM peptide, 2 hours at 23° C.; KI determined from IC50. The source says: Fluorescence quenching assay measures the change in fluorescence intensity of C-terminally Cy5-labeled BCL-xL protein, His-His-(EK)-hs ? (2-197)[N197C] (UniProtKB® primary accession number Q07817-1) having an amino acid sequence (SEQ ID:03): [[…] […] […] […] […]] which is linked in C-terminal region to the amino acid X which corresponds to a cysteine labeled on the sulfur with Sulfo-Cyanine5 from Lumiprobe GmbH catalogue number 13380, upon binding of a C-terminally labeled peptide derived from PUMA (UniProtKB® primary accession number Q9BXH1) having an aminoacid sequence (SEQ ID:04): [[…]] which is linked in C-terminal region to the amino acid X′ where X′ is cysteine labeled on the sulfur with TQ5WS from AAT Bioquest catalogue number 2079.
The addition of a compound which binds competitively to the same site as the peptide will result in an increase in the fluorescence intensity of the protein due to displacement of the fluorescence quencher.
An 11-point serial dilution of each compound was prepared in DMSO the final buffer conditions were 10 mM 4-(2-hydroxyethyl)-1-piperazineethanesulfonic acid [HEPES], 150 mM NaCl, 0.05% Tween 20, pH 7.4 and 5% DMSO. The final protein concentration in the assay was 1 nM with the peptide present at 400 nM. The experiments were incubated for 2 hours at 23° C. before fluorescence intensity was measured on a Biotek SynergyNeo plate reader (Excitation 620 nm, emission 680 nm). […] The KI values were determined from the IC50 values according to Cer et al, Nucleic Acids Res, 2009, Jul. 1: 37(WebServer issue): W441-W445.

Assay [3] relates to MOLT-4 cells. The assay can be described thus: MOLT-4 cell viability, MTT assay. The assay is classed as cell-based. The settings on record: Homo sapiens, MOLT-4, 48 h, 48 h exposure. Put shortly:
as §1

T1 sequence (Q07817 2-197 N197C): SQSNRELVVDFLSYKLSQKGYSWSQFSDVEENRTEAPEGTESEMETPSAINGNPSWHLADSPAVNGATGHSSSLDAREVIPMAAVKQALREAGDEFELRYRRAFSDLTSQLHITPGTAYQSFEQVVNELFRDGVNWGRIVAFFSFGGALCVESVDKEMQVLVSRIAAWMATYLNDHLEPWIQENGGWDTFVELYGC

Usually IC50 stands for the concentration that inhibits the measured activity by half. The low end stands for inhibition by little substance, the high end for a need for much substance. The Ki is the equilibrium dissociation constant of an inhibitor or competing ligand from its target. With `CCN(CC)CCNCCCCCN(c1cc(C)c(Nc2nc3ccccc3s2)nn1)c1nc(C(=O)O)c(CCCOc2ccc(C#CCN(C)C)cc2F)s1` [Example 182, 2-[[6-(1,3-Benzothiazol-2-ylamino)-5-methyl-pyridazin-3-yl]-[5-[2-(diethylamino)ethylamino]pentyl]amino]-5-[3-[4-[3-(dimethylamino)prop-1-ynyl]-2-fluoro-phenoxy]propyl]thiazole-4-carboxylic acid], the results for the IC50 in assay [1] and in assay [3] were 199 nM and 129 nM, respectively. For the same compound, the inhibition constant Ki in assay [2] was 0.0074 nM.

As for `COC(COc1ccc(C#CCN(C)C)cc1F)Cc1sc(N(C)c2cc(C)c(Nc3nc4ccccc4s3)nn2)nc1C(=O)O` (stereo not drawn) [Example 183, 2-({6-[(1,3-Benzothiazol-2-yl)amino]-5-methylpyridazin-3-yl}(methyl)amino)-5-(3-{4-[3-(dimethylamino)prop-1-yn-1-yl]-2-fluorophenoxy}-2-methoxypropyl)-1,3-thiazole-4-carboxylic acid], the figures for the IC50 in assay [1] and in assay [3] were 187 nM and 46.5 nM, respectively. The inhibitory constant (Ki) in assay [2] amounted to 0.0078 nM.

With `Cc1cc(N(CCCCN2CCNCC2)c2nc(C(=O)O)c(CCCOc3ccc(C#CCN(C)C)cc3F)s2)nnc1Nc1nc2ccccc2s1` [Example 184, 2-[[6-(1,3-Benzothiazol-2-ylamino)-5-methyl-pyridazin-3-yl]-(4-piperazin-1-ylbutyl)amino]-5-[3-[4-[3-(dimethylamino)prop-1-ynyl]-2-fluoro-phenoxy]propyl]thiazole-4-carboxylic acid], the IC50 in assay [1] is 107 nM; in assay [3], 184 nM. For the same compound, in assay [2], the inhibition constant (Ki) came out at 0.0036 nM.

Turning to `CNC/C=C/c1ccc(OCCCc2sc(N(CCCCO)c3cc(C)c(Nc4nc5ccccc5s4)nn3)nc2C(=O)O)c(F)c1` [Example 185, 2-[[6-(1,3-Benzothiazol-2-ylamino)-5-methyl-pyridazin-3-yl]-(4-hydroxybutyl)amino]-5-[3-[2-fluoro-4-[(E)-3-(methylamino)prop-1-enyl]phenoxy]propyl]thiazole-4-carboxylic acid], the IC50 in assay [1] is 7 nM; in assay [3] it was 16.8 nM. The Ki in assay [2] was determined as 0.0012 nM.

As to `CNCCCc1ccc(OCCCc2sc(N(CCCCO)c3cc(C)c(Nc4nc5ccccc5s4)nn3)nc2C(=O)O)c(F)c1` [Example 186, 2-[[6-(1,3-Benzothiazol-2-ylamino)-5-methyl-pyridazin-3-yl]-(4-hydroxybutyl)amino]-5-[3-[2-fluoro-4-[3-(methylamino)propyl]phenoxy]propyl]thiazole-4-carboxylic acid], the IC50 worked out at 16.9 nM in assay [1] and 85.3 nM in assay [3]. The Ki in assay [2] was 0.001 nM.

On to `Cc1cc(N(CCCCCNCCN2CCCCC2)c2nc(C(=O)O)c(CCCOc3ccc(C#CCN(C)C)cc3F)s2)nnc1Nc1nc2ccccc2s1` [Example 187, 2-[[6-(1,3-Benzothiazol-2-ylamino)-5-methyl-pyridazin-3-yl]-[5-[2-(1-piperidyl)ethylamino]pentyl]amino]-5-[3-[4-[3-(dimethylamino)prop-1-ynyl]-2-fluoro-phenoxy]propyl]thiazole-4-carboxylic acid], for which the results for the IC50 in assay [1] and in assay [3] were 23400 nM and 103 nM, respectively. Moreover, the Ki in assay [2] was found to be 0.0025 nM.

Take `CNCCCCN(c1cc(C)c(Nc2nc3ccccc3s2)nn1)c1nc(C(=O)O)c(CCCOc2ccc(C#CCN(C)C)cc2F)s1` [Example 188, 2-[[6-(1,3-Benzothiazol-2-ylamino)-5-methyl-pyridazin-3-yl]-[4-(methylamino)butyl]amino]-5-[3-[4-[3-(dimethylamino)prop-1-ynyl]-2-fluoro-phenoxy]propyl]thiazole-4-carboxylic acid]: the 50% inhibitory concentration (IC50) in assay [1] turned out to be 5.44 nM; in assay [3], 3410 nM. The Ki in assay [2] was found to be 0.0018 nM.

With `Cc1cc(N(CCCCCN2CCNCC2)c2nc(C(=O)O)c(CCCOc3ccc(C#CCN(C)C)cc3F)s2)nnc1Nc1nc2ccccc2s1` [Example 189, 2-[[6-(1,3-Benzothiazol-2-ylamino)-5-methyl-pyridazin-3-yl]-(5-piperazin-1-ylpentyl)amino]-5-[3-[4-[3-(dimethylamino)prop-1-ynyl]-2-fluoro-phenoxy]propyl]thiazole-4-carboxylic acid], the figures for the 50% inhibitory concentration (IC50) in assay [1] and in assay [3] were 94.8 nM and 171 nM, respectively. The Ki in assay [2] came to 0.0074 nM.

With `CNCCN(C)CCCCCN(c1cc(C)c(Nc2nc3ccccc3s2)nn1)c1nc(C(=O)O)c(CCCOc2ccc(C#CCN(C)C)cc2F)s1` [Example 190, 2-[[6-(1,3-Benzothiazol-2-ylamino)-5-methyl-pyridazin-3-yl]-[5-[methyl-[2-(methylamino)ethyl]amino]pentyl]amino]-5-[3-[4-[3-(dimethylamino)prop-1-ynyl]-2-fluoro-phenoxy]propyl]thiazole-4-carboxylic acid], the IC50 was 78.3 nM in assay [1] and 54.9 nM in assay [3]. Also, the Ki in assay [2] turned out to be 0.0032 nM.

In the case of `Cc1cc(N(CCCCCN)c2nc(C(=O)O)c(CCCOc3ccc(C#CCN(C)C)cc3F)s2)nnc1Nc1nc2ccccc2s1` [Example 191, 2-[5-Aminopentyl-[6-(1,3-benzothiazol-2-ylamino)-5-methyl-pyridazin-3-yl]amino]-5-[3-[4-[3-(dimethylamino)prop-1-ynyl]-2-fluoro-phenoxy]propyl]thiazole-4-carboxylic acid], the IC50 was 83.8 nM in assay [1] and 2200 nM in assay [3]. Besides, the Ki in assay [2] was determined as 0.0028 nM.

Consider `Cc1cc(N(CCCCN)c2nc(C(=O)O)c(CCCOc3ccc(C#CCN(C)C)cc3F)s2)nnc1Nc1nc2ccccc2s1` [Example 192, 2-[4-Aminobutyl-[6-(1,3-benzothiazol-2-ylamino)-5-methyl-pyridazin-3-yl]amino]-5-[3-[4-[3-(dimethylamino)prop-1-ynyl]-2-fluoro-phenoxy]propyl]thiazole-4-carboxylic acid], for which the concentration for half-maximal inhibition (IC50) amounted to 11.9 nM in assay [1] and 96.4 nM in assay [3]. Also, the inhibitory constant (Ki) in assay [2] was 0.0029 nM.

On to `CNCC#Cc1ccc(OCCCc2sc(N(CCCC(O)CN(C)C)c3cc(C)c(Nc4nc5ccccc5s4)nn3)nc2C(=O)O)c(F)c1` (stereo not drawn) [Example 193, 2-[[6-(1,3-Benzothiazol-2-ylamino)-5-methyl-pyridazin-3-yl]-[5-(dimethylamino)-4-hydroxy-pentyl]amino]-5-[3-[2-fluoro-4-[3-(methylamino)prop-1-ynyl]phenoxy]propyl]thiazole-4-carboxylic acid], for which the concentration for half-maximal inhibition (IC50) in assay [1] was 65 nM; in assay [3], 92.5 nM. In addition, in assay [2], the Ki was determined as 0.0013 nM.

`CNCCCCCN(c1cc(C)c(Nc2nc3ccccc3s2)nn1)c1nc(C(=O)O)c(CCCOc2ccc(C#CCN(C)C)cc2F)s1` [Example 194, 2-[[6-(1,3-Benzothiazol-2-ylamino)-5-methyl-pyridazin-3-yl]-[5-(methylamino)pentyl]amino]-5-[3-[4-[3-(dimethylamino)prop-1-ynyl]-2-fluoro-phenoxy]propyl]thiazole-4-carboxylic acid]: the IC50 in assay [1] was 27 nM; in assay [3], 129 nM. Also, the Ki in assay [2] stood at 0.0032 nM.

`Cc1cc(N(CCCCCNCCCN2CCN(C)CC2)c2nc(C(=O)O)c(CCCOc3ccc(C#CCN(C)C)cc3F)s2)nnc1Nc1nc2ccccc2s1` [Example 195, 2-[[6-(1,3-Benzothiazol-2-ylamino)-5-methyl-pyridazin-3-yl]-[5-[3-(4-methylpiperazin-1-yl)propylamino]pentyl]amino]-5-[3-[4-[3-(dimethylamino)prop-1-ynyl]-2-fluoro-phenoxy]propyl]thiazole-4-carboxylic acid]: the 50% inhibitory concentration (IC50) in assay [1] is 525 nM; in assay [3], 529 nM. Besides, the Ki in assay [2] worked out at 0.0018 nM.

Consider `Cc1cc(N(C)c2nc(C(=O)O)c(CCCOc3ccc(C#CCN4CCOCC4)cc3F)s2)nnc1Nc1nc2ccccc2s1` [Example 198, 2-[[6-(1,3-Benzothiazol-2-ylamino)-5-methyl-pyridazin-3-yl]-methyl-amino]-5-[3-[2-fluoro-4-(3-morpholinoprop-1-ynyl)phenoxy]propyl]thiazole-4-carboxylic acid], for which the results for the IC50 in assay [1] and in assay [3] were 1420 nM and 1.59 nM, respectively. In addition, the Ki in assay [2] worked out at 0.0073 nM.

Regarding `CNCC#Cc1ccc(OCCCc2sc(N(CCCCCCN(C)C)c3cc(C)c(Nc4nc5ccccc5s4)nn3)nc2C(=O)O)c(F)c1` [Example 199, 2-[[6-(1,3-Benzothiazol-2-ylamino)-5-methyl-pyridazin-3-yl]-[6-(dimethylamino)hexyl]amino]-5-[3-[2-fluoro-4-[3-(methylamino)prop-1-ynyl]phenoxy]propyl]thiazole-4-carboxylic acid], the values for the IC50 in assay [1] and in assay [3] were 64.1 nM and 25.9 nM, respectively. The Ki in assay [2] was found to be 0.001 nM.
